In patent publication EP3436445B1, “HISTONE DEMETHYLASE INHIBITORS” (Celgene Quanticel Research, Inc., priority 2016, dated 2017):

Experiments:
[1] = target: T1, PHF8 (Homo sapiens, UniProt Q9UPP1); assay: PHF8 in vitro enzyme inhibition assay (TR-FRET); format: biochemical; conditions: Table 3; 3 nM PHF8, H3K9me1-biotin labeled peptide
T1 construct: purchased Active Motif 31435
Description: (§1) This assay determines the ability of a test compound to inhibit FBXL11, FBXL10, and PHF8 demethylase activity. Baculovirus expressed FBXL11 (GenBank Accession #NM_012308, AA1-1162) was purchased from BPS Bioscience (Cat#50102). Baculovirus expressed FBXL10 (GenBank Accession #NM_032590, AA 1-650) was purchased from BPS Bioscience (Cat #50120). Baculovirus expressed PHF8 (GenBank Accession NP_055922.1) was purchased from Active Motif (Cat#31435).
The ability of test compounds to inhibit the activity of PHF8 was determined in 384-well plate format under the following reaction conditions: 3 nM PHF8, 200 nM H3K9me1-biotin labeled peptide (Anaspec cat #64358), 0.5 µM alpha-ketoglutaric acid in assay buffer of 50 mM HEPES, pH7.3, 0.005% Brij35, 0.5 mM TCEP, 0.2 mg/ml BSA, 50 µM sodium L-ascorbate, and 5 µM ammonium iron(II) sulfate. Reaction product was determined quantitatively by TR-FRET after the addition of detection reagent Phycolink Streptavidin-allophycocyanin (Prozyme) and Europium-anti-unmodified-histone H3 lysine 9/lysine27 (H3K9/K27) antibody (PerkinElmer) in the presence of 5 mM EDTA in LANCE detection buffer (PerkinElmer) at a final concentration of 25 nM and 0.5 nM, respectively.
The assay reaction was initiated by the following: 2 µl of the mixture of 600 nM H3K9me1-biotin labeled peptide and 1.5 µM alpha-ketoglutaric acid with 2 µl of 11-point serial diluted inhibitor in 3% DMSO were added to each well of the plate, followed by the addition of 2 µl of 9 nM PHF8 to initiate the reaction. The reaction mixture was incubated at room temperature for 15 minutes, and terminated by the addition of 6 µl of 5 mM EDTA in LANCE detection buffer containing 50 nM Phycolink Streptavidin-allophycocyanin and 1 nM Europium-anti-unmodified H3K9/K27 antibody. Plates were read by EnVision Multilabel Reader in TR-FRET mode (excitation at 320 nm, emission at 615 nm and 665 nm) after 1 hour incubation at room temperature. A ratio was calculated (665/615) for each well and fitted to determine inhibition constant (IC50).

[2] = target: T2, FBXL11 (Homo sapiens, UniProt Q9Y2K7); assay: FBXL11 in vitro enzyme inhibition assay (AlphaScreen); format: biochemical; conditions: Table 3; 0.15 nM FBXL11, H3K36me2-biotin labeled peptide
T2 construct: purchased BPS Bioscience 50102
T2 sequence (Q9Y2K7 1-1162): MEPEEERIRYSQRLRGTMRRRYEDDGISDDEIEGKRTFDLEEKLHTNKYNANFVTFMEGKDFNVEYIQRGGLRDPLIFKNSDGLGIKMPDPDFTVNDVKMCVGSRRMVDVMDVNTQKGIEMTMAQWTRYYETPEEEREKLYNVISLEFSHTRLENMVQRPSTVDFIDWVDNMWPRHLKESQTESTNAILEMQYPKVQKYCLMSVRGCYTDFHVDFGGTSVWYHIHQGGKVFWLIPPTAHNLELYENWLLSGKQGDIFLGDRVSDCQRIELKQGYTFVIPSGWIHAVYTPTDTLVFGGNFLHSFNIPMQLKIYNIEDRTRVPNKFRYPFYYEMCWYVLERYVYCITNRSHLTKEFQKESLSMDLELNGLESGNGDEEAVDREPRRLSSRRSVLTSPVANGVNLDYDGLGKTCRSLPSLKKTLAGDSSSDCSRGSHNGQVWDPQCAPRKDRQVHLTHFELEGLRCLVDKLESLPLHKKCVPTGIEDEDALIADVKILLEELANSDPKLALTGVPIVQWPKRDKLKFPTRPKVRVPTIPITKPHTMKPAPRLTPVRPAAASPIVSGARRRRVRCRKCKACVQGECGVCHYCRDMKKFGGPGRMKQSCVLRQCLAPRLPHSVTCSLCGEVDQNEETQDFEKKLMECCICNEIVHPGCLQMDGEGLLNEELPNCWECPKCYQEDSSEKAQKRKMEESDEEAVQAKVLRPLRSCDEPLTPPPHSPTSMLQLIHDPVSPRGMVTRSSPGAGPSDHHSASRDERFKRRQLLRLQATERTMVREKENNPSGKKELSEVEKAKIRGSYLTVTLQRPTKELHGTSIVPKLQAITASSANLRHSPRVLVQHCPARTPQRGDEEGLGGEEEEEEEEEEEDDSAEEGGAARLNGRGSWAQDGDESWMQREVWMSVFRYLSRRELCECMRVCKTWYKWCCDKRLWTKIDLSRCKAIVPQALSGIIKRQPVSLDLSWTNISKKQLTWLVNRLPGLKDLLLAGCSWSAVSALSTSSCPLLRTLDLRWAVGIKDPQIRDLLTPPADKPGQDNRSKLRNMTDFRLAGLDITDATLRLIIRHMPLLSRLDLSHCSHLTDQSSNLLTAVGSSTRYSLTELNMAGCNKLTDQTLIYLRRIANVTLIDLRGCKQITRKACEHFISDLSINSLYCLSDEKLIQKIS
Description: as §1
The ability of test compounds to inhibit the activity of FBXL11 was determined in 384-well plate format under the following reaction conditions: 0.15 nM FBXL11, 30 nM H3K36me2-biotin labeled peptide (Anaspec cat # 64442), 0.2 µM alpha-ketoglutaric acid in assay buffer of 50 mM HEPES, pH7.3, 0.005% Brij35, 0.5 mM TCEP, 0.2 mg/ml BSA, 50 µM sodium L-ascorbate, 5 µM ammonium iron(II) sulfate. Reaction product is determined quantitatively by AlphaScreen detection after the addition of detection reagents anti-H3K36me1 antibody, AlphaScreen® Streptavidin-coated Donor beads, and AlphaScreen® Protein A Acceptor beads in 50 mM HEPES, pH7.3, 10 mM NaCl, 0.005% Brij35, 5 mM EDTA, 2 mg/ml BSA to final 10 µg/ml beads.
The assay reaction was initiated by the following: 3 µl of the mixture of 90 nM H3K36me2-biotin labeled peptide and 0.6 µM alpha-ketoglutaric acid with 3 µl of 11-point serial diluted inhibitor in 3% DMSO are added to each well of 384 well Proxiplate (Perkin Elmer), followed by the addition of 3 µl of 0.45 nM FBXL11 to initiate the reaction. The reaction mixture is incubated at room temperature for 1 hour, and terminated by the addition of 3 µl of appropriate dilution of anti H3K36me1 antibody in 50 mM HEPES, pH7.3, 10 mM NaCl, 0.005% Brij35, 5 mM EDTA, 2 mg/ml BSA. Plates will then incubated at room temperature for 40 minutes, followed by addition of 3 µl of 50 µg/ml AlphaScreen® Streptavidin-coated Donor beads and AlphaScreen® Protein A Acceptor beads in 50 mM HEPES, pH7.3, 10 mM NaCl, 0.005% Brij35, 5 mM EDTA, 2 mg/ml BSA. Plates will then be read by EnVision Multilabel Reader in AlphaScreen mode after minimum 2 hour incubation at room temperature. The AlphaScreen signal for each well is used to determine inhibition constant (IC50).

T1 sequence (Q9UPP1 37-1060): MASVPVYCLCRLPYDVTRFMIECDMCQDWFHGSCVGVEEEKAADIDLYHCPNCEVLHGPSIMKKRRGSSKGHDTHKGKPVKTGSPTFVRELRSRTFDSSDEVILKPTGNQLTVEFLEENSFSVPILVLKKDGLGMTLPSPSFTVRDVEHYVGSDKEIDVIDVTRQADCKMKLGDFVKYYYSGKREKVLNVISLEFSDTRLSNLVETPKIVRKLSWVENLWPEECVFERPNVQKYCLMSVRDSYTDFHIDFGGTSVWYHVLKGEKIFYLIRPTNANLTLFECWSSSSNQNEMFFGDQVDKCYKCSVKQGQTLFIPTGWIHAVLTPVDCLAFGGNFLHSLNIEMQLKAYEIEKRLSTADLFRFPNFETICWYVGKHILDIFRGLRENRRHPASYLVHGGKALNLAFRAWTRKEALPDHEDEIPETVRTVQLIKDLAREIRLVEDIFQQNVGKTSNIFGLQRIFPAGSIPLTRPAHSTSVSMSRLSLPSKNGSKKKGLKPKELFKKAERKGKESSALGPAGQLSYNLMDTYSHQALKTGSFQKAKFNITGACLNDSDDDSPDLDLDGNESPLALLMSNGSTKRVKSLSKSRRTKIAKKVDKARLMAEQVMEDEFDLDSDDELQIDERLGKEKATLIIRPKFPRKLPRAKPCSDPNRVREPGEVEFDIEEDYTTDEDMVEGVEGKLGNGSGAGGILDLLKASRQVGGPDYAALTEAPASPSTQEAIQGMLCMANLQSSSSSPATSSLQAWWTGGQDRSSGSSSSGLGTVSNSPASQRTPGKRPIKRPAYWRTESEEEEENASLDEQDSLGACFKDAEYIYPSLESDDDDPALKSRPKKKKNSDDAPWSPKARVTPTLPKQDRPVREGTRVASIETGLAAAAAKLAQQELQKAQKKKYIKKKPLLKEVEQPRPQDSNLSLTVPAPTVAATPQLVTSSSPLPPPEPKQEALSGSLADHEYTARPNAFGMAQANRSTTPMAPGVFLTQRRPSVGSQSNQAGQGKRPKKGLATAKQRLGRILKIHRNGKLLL

| SMILES | IC50 [1] [nM] | IC50 [2] [nM] |
| --- | --- | --- |
| c1ccc(Cn2cnc(-c3cc4[nH]nnc4cn3)c2)cc1 [Example 44, 1-benzyl-4-{1H-[1,2,3]triazolo[4,5-c]pyridin-6-yl}-1H-imidazole] | 100 to 1000 | ≤ 100 |
| Clc1ccccc1Cn1cnc(-c2cc3[nH]nnc3cn2)c1 [Example 45, 1-[(2-chlorophenyl)methyl]-4-{1H-[1,2,3]triazolo[4,5-c]pyridin-6-yl}-1H-imidazole] | 1000 to 10000 | ≤ 100 |
| Clc1ccc(Cn2cnc(-c3cc4[nH]nnc4cn3)c2)cc1 [Example 47, 1-[(4-chlorophenyl)methyl]-4-{1H-[1,2,3]triazolo[4,5-c]pyridin-6-yl}-1H-imidazole] | 1000 to 10000 | ≤ 100 |
| Clc1ccc(Cn2cnc(-c3cc4[nH]nnc4cn3)c2)cc1Cl [Example 48, 1-[(3,4-dichlorophenyl)methyl]-4-{1H-[1,2,3]triazolo[4,5-c]pyridin-6-yl}-1H-imidazole] | 1000 to 10000 | ≤ 100 |
| Clc1cccc(-n2cnc(-c3cc4[nH]nnc4cn3)c2)c1 [Example 51, 1-(3-chlorophenyl)-4-{1H-[1,2,3]triazolo[4,5-c]pyridin-6-yl}-1H-imidazole] | 1000 to 10000 | 100 to 1000 |

Results, then the compound that gave them:

| IC50 [1] [nM] | IC50 [2] [nM] | SMILES |
| --- | --- | --- |
| 1000 to 10000 | ≤ 100 | Clc1cccc(Cn2cnc(-c3cc4[nH]nnc4cn3)c2)c1 [Example 46, 1-[(3-chlorophenyl)methyl]-4-{1H-[1,2,3]triazolo[4,5-c]pyridin-6-yl}-1H-imidazole] |
| 1000 to 10000 | ≤ 100 | Clc1ccc(-n2cnc(-c3cc4[nH]nnc4cn3)c2)cc1 [Example 49, 1-(4-chlorophenyl)-4-{1H-[1,2,3]triazolo[4,5-c]pyridin-6-yl}-1H-imidazole] |
| 1000 to 10000 | ≤ 100 | Clc1ccccc1-n1cnc(-c2cc3[nH]nnc3cn2)c1 [Example 50, 1-(2-chlorophenyl)-4-{1H-[1,2,3]triazolo[4,5-c]pyridin-6-yl}-1H-imidazole] |
